Data from patent US20240343694A1, “PYRIMIDINE DERIVATIVE, METHOD FOR PREPARING SAME, AND PHARMACEUTICAL COMPOSITION FOR PREVENTING OR TREATING CANCER COMPRISING SAME AS ACTIVE INGREDIENT” (KOREA RESERARCH INSTITUTE OF CHEMICAL TECHNOLOGY, priority 2021, published 2024).

How the values were obtained:
Type in all cases: biochemical
Details in all cases: recombinant enzyme, 37° C. for 2 hours
HER2 A775_G776insYVMA = HER2 A775_G776insYVMA (Homo sapiens (Human), UniProt P04626, INS775YVMA); test: HTRF inhibitory activity against HER2 mutant enzyme
HER2 A775_G776insYVMA, sequence (P04626 other isoform, or with tags, fused parts or gaps del 1-675/ins YVMA behind 775 limits assumed): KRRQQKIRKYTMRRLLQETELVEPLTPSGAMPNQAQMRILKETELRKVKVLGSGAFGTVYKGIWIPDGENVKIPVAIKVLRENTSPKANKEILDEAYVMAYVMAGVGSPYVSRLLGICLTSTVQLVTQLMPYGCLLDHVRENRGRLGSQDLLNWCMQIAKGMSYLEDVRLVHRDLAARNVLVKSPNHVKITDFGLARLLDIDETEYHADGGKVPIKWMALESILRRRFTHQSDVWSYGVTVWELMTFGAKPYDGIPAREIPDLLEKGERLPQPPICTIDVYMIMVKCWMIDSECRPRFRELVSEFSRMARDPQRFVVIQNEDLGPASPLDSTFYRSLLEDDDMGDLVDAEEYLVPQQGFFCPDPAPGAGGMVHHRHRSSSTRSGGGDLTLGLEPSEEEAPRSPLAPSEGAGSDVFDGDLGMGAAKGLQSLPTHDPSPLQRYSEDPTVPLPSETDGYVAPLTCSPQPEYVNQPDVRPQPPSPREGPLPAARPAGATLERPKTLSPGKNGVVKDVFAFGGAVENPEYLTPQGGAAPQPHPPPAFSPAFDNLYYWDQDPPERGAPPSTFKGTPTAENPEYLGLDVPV
Protocol: The activity of the compounds of the present invention against HER mutant enzymes was measured using the HTRF system purchased by Cisbio as follows. As a HER2 mutant enzyme, the HER2 A775_G776insYVMA mutant enzyme was used by purchasing a recombinant protein provided by Carna Biosciences.
(§1) The composition of the assay buffer used for activity measurement was 50 mM tris-HCl pH 7.5, 100 mM NaCl, 7.5 mM MgCl2, 3 mM KCl, 0.01% tween 20, 0.1% BSA, and 1 mM DTT. In addition thereto, the enzymatic reaction was performed using a peptide substrate labeled with ATP at a concentration of […] and biotin at a concentration of […]. The analysis of the activity inhibitory effect of the compounds on HER2 A775_G776insYVMA mutation was performed according to the following method. • Component 1:4 μL of HER2 A775_G776insYVMA mutant enzyme • Component 2:2 μL of compound solution • Component 3:4 μL of ATP and a biotin labeled peptide
The enzyme reaction begins by first mixing component 1 and component 2 and then adding component 3 thereto. After the reaction at 37° C. for 2 hours, […] of a measurement solution consisting of streptavidin-XL665 and a europium-labeled anti-phosphotyrosine antibody purchased from Cisbio was added to the enzyme reaction solution and reacted at room temperature for 1 hour. […] The measured values at 7 compound concentrations were analyzed using the Prism program (version 5.01, Graphpad Software, Inc.), and the IC50 (μM) values, which are measures of the compounds' inhibitory ability, were calculated.

EGFR del19 = EGFR del19 (Homo sapiens (Human), UniProt P00533, DEL746-750); test: HTRF inhibitory activity against EGFR mutant enzyme (EGFR del19)
EGFR del19, sequence (P00533 other isoform, or with tags, fused parts or gaps del 1-668/del 746-750 limits assumed): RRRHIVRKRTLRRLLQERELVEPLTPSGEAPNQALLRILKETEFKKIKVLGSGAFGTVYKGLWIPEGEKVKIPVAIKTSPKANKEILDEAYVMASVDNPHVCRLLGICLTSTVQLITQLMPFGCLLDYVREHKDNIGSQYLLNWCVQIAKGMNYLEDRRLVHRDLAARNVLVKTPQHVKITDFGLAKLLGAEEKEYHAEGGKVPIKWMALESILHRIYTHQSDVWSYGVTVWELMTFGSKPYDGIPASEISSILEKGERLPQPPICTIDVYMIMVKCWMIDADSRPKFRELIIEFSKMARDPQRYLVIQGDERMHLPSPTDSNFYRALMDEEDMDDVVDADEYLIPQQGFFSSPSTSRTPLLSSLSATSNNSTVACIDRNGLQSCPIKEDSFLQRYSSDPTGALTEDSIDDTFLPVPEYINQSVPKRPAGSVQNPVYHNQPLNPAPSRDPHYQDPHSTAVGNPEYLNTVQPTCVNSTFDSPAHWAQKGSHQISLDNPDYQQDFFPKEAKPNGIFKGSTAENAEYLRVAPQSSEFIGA
Protocol: (§2) The activity of the compounds of the present invention against EGFR mutant enzymes was measured using the HTRF system purchased from Cisbio as follows. For an EGFR mutant enzyme, the EGFR del19 enzyme was a recombinant protein purchased from Carna Biosciences, and the EGFR A763_Y764insFHEA enzyme was a recombinant protein purchased from SignalChem, respectively.
as §1, with “An” for “In addition thereto, the”, “the” for “the activity”, “EGFR activity” for “HER2 A775_G776insYVMA mutation”, “EGFR” for “HER2 A775_G776insYVMA”
(§3) The enzyme reaction begins by first mixing component 1 and component 2 and then adding component 3 thereto. After the reaction at 37° C. for 2 hours, […] of a measurement solution consisting of streptavidin-XL665 and a europium-labeled anti-phosphotyrosine antibody purchased from Cisbio was added to the enzyme reaction solution and reacted at room temperature for 1 hour. Finally, the ratio of fluorescence values at 615 nm and 665 nm was measured using Perkin-Elmer's Envision instrument to calculate enzyme activity and confirm the inhibitory ability of the compounds. The measured values at 7 compound concentrations were analyzed using the Prism program (version 5.01, Graphpad Software, Inc.), and the IC50 (μM) values, which are measures of the compounds' inhibitory activity, were calculated.

EGFR A763_Y764insFHEA = EGFR A763_Y764insFHEA (Homo sapiens (Human), UniProt P00533, INS763FHEA); test: HTRF inhibitory activity against EGFR mutant enzyme (EGFR A763_Y764insFHEA)
EGFR A763_Y764insFHEA, sequence (P00533 other isoform, or with tags, fused parts or gaps del 1-694/ins FHEA behind 763 limits assumed): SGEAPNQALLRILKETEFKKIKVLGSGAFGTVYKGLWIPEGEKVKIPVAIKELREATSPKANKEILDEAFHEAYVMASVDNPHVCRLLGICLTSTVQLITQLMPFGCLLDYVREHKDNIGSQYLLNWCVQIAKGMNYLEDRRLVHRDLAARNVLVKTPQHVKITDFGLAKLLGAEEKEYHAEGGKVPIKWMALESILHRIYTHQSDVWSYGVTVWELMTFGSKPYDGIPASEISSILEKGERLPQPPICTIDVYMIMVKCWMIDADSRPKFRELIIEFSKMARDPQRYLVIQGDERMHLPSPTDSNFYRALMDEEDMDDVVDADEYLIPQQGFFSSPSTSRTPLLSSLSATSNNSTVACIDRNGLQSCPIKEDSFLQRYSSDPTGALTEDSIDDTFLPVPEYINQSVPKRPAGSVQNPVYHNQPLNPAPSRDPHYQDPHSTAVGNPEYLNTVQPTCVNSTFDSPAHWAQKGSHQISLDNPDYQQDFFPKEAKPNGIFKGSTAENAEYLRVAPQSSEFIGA
Protocol: as §2
as §1, with “An” for “In addition thereto, the”, “the” for “the activity”, “EGFR activity” for “HER2 A775_G776insYVMA mutation”, “EGFR” for “HER2 A775_G776insYVMA”
as §3

Row | SMILES | IC50 (HER2 A775_G776insYVMA) [nM] | IC50 (EGFR del19) [nM] | IC50 (EGFR A763_Y764insFHEA) [nM]
1 | C=CC(=O)Nc1cc(Nc2ncc(C(=O)OC)c(Nc3cccc4c3N(S(C)(=O)=O)CCC4)n2)c(OC)cc1N(C)CCN(C)C [Example 51, methyl 2-((5-acrylamido-4-((2-(dimethylamino)ethyl)(methyl)amino)-2-methoxyphenyl)amino)-4-((1-(methylsulfonyl)-1,2,3,4-tetrahydroquinolin-8-yl)amino)pyrimidin-5-carboxylate] | 30 | < 1 | < 1
2 | C=CC(=O)Nc1cc(Nc2ncc(C(=O)OC(C)C)c(Nc3cccc4c3N(S(C)(=O)=O)CCC4)n2)c(OC)cc1N(C)CCN(C)C [Example 52, isopropyl 2-((5-acrylamido-4-((2-(dimethylamino)ethyl)(methyl)amino)-2-methoxyphenyl)amino)-4-((1-(methylsulfonyl)-1,2,3,4-tetrahydroquinolin-8-yl)amino)pyrimidin-5-carboxylate] | 4 | < 1 | < 1
3 | C=C(F)C(=O)Nc1cc(Nc2ncc(Cl)c(Nc3cccc4c3N(S(C)(=O)=O)CCC4)n2)c(OC)cc1N(C)CCN(C)C [Example 54, N-(5-((5-chloro-4-((1-(methylsulfonyl)-1,2,3,4-tetrahydroquinolin-8-yl)amino)pyrimidin-2-yl)amino)-2-((2-(dimethylamino)ethyl)(methyl)amino)-4-methoxyphenyl)-2-fluoroacrylamide] | 10 | < 1 | < 1
4 | C=CC(=O)Nc1cc(Nc2ncc(C(=O)OC)c(Nc3cccc4c3N(S(C)(=O)=O)CC4)n2)c(OC)cc1N(C)CCN(C)C [Example 60, methyl 2-((5-acrylamido-4-((2-(dimethylamino)ethyl)(methyl)amino)-2-methoxyphenyl)amino)-4-((1-(methylsulfonyl)indolin-7-yl)amino)pyrimidin-5-carboxylate] | 10 | < 1 | < 1
5 | C=CC(=O)Nc1cc(Nc2ncc(Cl)c(Nc3cccc4ccn(S(C)(=O)=O)c34)n2)c(OC)cc1N(C)CCN(C)C [Example 67, N-(5-((5-chloro-4-((1-(methylsulfonyl)-1H-indol-7-yl)amino)pyrimidin-2-yl)amino)-2-((2-(dimethylamino)ethyl)(methyl)amino)-4-methoxyphenyl)acrylamide] | 81 | < 1 | < 1
6 | C=CC(=O)Nc1cc(Nc2ncc(Cl)c(Nc3ccc4nccnc4c3N(C)S(C)(=O)=O)n2)c(OC)cc1N(C)CCN(C)C [Example 68, N-(5-((5-chloro-4-((5-(N-methylmethylsulfonamido)quinoxalin-6-yl)amino)pyrimidin-2-yl)amino)-2-((2-(dimethylamino)ethyl)(methyl)amino)-4-methoxyphenyl)acrylamide] | 6 | < 1 | < 1
7 | C=CC(=O)Nc1cc(Nc2ncc(Cl)c(Nc3ccc4nccnc4c3NS(C)(=O)=O)n2)c(OC)cc1N(C)CCN(C)C [Example 69] | 6 | < 1 | < 1
8 | C=CC(=O)Nc1cc(Nc2ncc(Cl)c(Nc3ccccc3N3CCCS3(=O)=O)n2)c(OC)cc1N(C)CCN(C)C [Example 70, N-(5-((5-chloro-4-((2-(1,1-dioxidoisothiazolidin-2-yl)phenyl)amino)pyrimidin-2-yl)amino)-2-((2-(dimethylamino)ethyl)(methyl)amino)-4-methoxyphenyl)acrylamide] | 33 | < 1 | 4
9 | C=CC(=O)Nc1cc(Nc2ncc(Cl)c(Nc3ccccc3N3CCCCS3(=O)=O)n2)c(OC)cc1N(C)CCN(C)C [Example 71, N-(5-((5-chloro-4-((2-(1,1-dioxido-1,2-thiazinan-2-yl)phenyl)amino)pyrimidin-2-yl)amino)-2-((2-(dimethylamino)ethyl)(methyl)amino)-4-methoxyphenyl)acrylamide] | 61 | < 1 | 5
